# From patent US20150296790A1, “SILICON-CONTAINING COMPOUND AQUEOUS SOLUTION AND ANTIBACTERIAL/ANTIVIRAL AGENT INCLUDING SAID SOLUTION” (JEX CO., LTD., priority 2012, published 2015)
# Assay: Stability over time (three-month storage tests, visual)
# Type: physicochemical
# Settings: purified water
compound,measurement,setting,value
"CCCCCCCCCCCCCCCCCC[N+](C)(C)CCC[Si](OCC)(OCC)OCC.[Cl-] [Compound E, Octadecyl dimethyl(3-triethoxysilylpropyl)ammonium chloride]","Change Over 3 Months (Accelerated Test at 40° C., Cold Test at 5° C., Ambient Test at 25° C.)","DEXYPEARL 1 w/w %, Compound E 0.1 w/w %",Not clear but stable
same,"Change Over 3 Months (Accelerated Test at 40° C., Cold Test at 5° C., Ambient Test at 25° C.)","DEXYPEARL 2 w/w %, Compound E 0.1 w/w %",Not clear but stable
same,"Change Over 3 Months (Accelerated Test at 40° C., Cold Test at 5° C., Ambient Test at 25° C.)","DEXYPEARL 3 w/w %, Compound E 0.1 w/w %",Not clear but stable
same,"Change Over 3 Months (Accelerated Test at 40° C., Cold Test at 5° C., Ambient Test at 25° C.)","DEXYPEARL 4 w/w %, Compound E 0.1 w/w %",Not clear but stable
same,"Change Over 3 Months (Accelerated Test at 40° C., Cold Test at 5° C., Ambient Test at 25° C.)","DEXYPEARL 5 w/w %, Compound E 0.1 w/w %",Not clear but stable
same,"Change Over 3 Months (Accelerated Test at 40° C., Cold Test at 5° C., Ambient Test at 25° C.)","DEXYPEARL 6 w/w %, Compound E 0.1 w/w %",Not clear but stable
same,"Change Over 3 Months (Accelerated Test at 40° C., Cold Test at 5° C., Ambient Test at 25° C.)","DEXYPEARL 7 w/w %, Compound E 0.1 w/w %",Not clear but stable
same,"Change Over 3 Months (Accelerated Test at 40° C., Cold Test at 5° C., Ambient Test at 25° C.)","DEXYPEARL 8 w/w %, Compound E 0.1 w/w %",Not clear but stable
same,"Change Over 3 Months (Accelerated Test at 40° C., Cold Test at 5° C., Ambient Test at 25° C.)","DEXYPEARL 9 w/w %, Compound E 0.1 w/w %",Not clear but stable
same,"Change Over 3 Months (Accelerated Test at 40° C., Cold Test at 5° C., Ambient Test at 25° C.)","DEXYPEARL 10 w/w %, Compound E 0.1 w/w %",Not clear but stable
same,"Change Over 3 Months (Accelerated Test at 40° C., Cold Test at 5° C., Ambient Test at 25° C.)","DEXYPEARL 20 w/w %, Compound E 0.1 w/w %",Precipitated
same,"Change Over 3 Months (Accelerated Test at 40° C., Cold Test at 5° C., Ambient Test at 25° C.)","DEXYPEARL 30 w/w %, Compound E 0.1 w/w %",Precipitated
same,"Change Over 3 Months (Accelerated Test at 40° C., Cold Test at 5° C., Ambient Test at 25° C.)","DEXYPEARL 40 w/w %, Compound E 0.1 w/w %",Precipitated
same,"Change Over 3 Months (Accelerated Test at 40° C., Cold Test at 5° C., Ambient Test at 25° C.)","ISOELEAT 1 w/w %, Compound E 0.1 w/w %",Not clear but stable
same,"Change Over 3 Months (Accelerated Test at 40° C., Cold Test at 5° C., Ambient Test at 25° C.)","ISOELEAT 2 w/w %, Compound E 0.1 w/w %",Not clear but stable
same,"Change Over 3 Months (Accelerated Test at 40° C., Cold Test at 5° C., Ambient Test at 25° C.)","ISOELEAT 3 w/w %, Compound E 0.1 w/w %",Not clear but stable
same,"Change Over 3 Months (Accelerated Test at 40° C., Cold Test at 5° C., Ambient Test at 25° C.)","ISOELEAT 4 w/w %, Compound E 0.1 w/w %",Not clear but stable
same,"Change Over 3 Months (Accelerated Test at 40° C., Cold Test at 5° C., Ambient Test at 25° C.)","ISOELEAT 5 w/w %, Compound E 0.1 w/w %",Not clear but stable
same,"Change Over 3 Months (Accelerated Test at 40° C., Cold Test at 5° C., Ambient Test at 25° C.)","ISOELEAT 6 w/w %, Compound E 0.1 w/w %",Not clear but stable
same,"Change Over 3 Months (Accelerated Test at 40° C., Cold Test at 5° C., Ambient Test at 25° C.)","ISOELEAT 7 w/w %, Compound E 0.1 w/w %",Not clear but stable
same,"Change Over 3 Months (Accelerated Test at 40° C., Cold Test at 5° C., Ambient Test at 25° C.)","ISOELEAT 8 w/w %, Compound E 0.1 w/w %",Not clear but stable
same,"Change Over 3 Months (Accelerated Test at 40° C., Cold Test at 5° C., Ambient Test at 25° C.)","ISOELEAT 9 w/w %, Compound E 0.1 w/w %",Not clear but stable
same,"Change Over 3 Months (Accelerated Test at 40° C., Cold Test at 5° C., Ambient Test at 25° C.)","ISOELEAT 10 w/w %, Compound E 0.1 w/w %",Precipitated
same,"Change Over 3 Months (Accelerated Test at 40° C., Cold Test at 5° C., Ambient Test at 25° C.)","ISOELEAT 20 w/w %, Compound E 0.1 w/w %",Precipitated
same,"Change Over 3 Months (Accelerated Test at 40° C., Cold Test at 5° C., Ambient Test at 25° C.)","ISOELEAT 30 w/w %, Compound E 0.1 w/w %",Precipitated
same,"Change Over 3 Months (Accelerated Test at 40° C., Cold Test at 5° C., Ambient Test at 25° C.)","ISOELEAT 40 w/w %, Compound E 0.1 w/w %",Precipitated
same,"Change Over 3 Months (Accelerated Test at 40° C., Cold Test at 5° C., Ambient Test at 25° C.)","ISOELEAT 50 w/w %, Compound E 0.1 w/w %",Precipitated
same,"Change Over 3 Months (Accelerated Test at 40° C., Cold Test at 5° C., Ambient Test at 25° C.)","α-CD 1 w/w %, Compound E 0.1 w/w %",Stable
same,"Change Over 3 Months (Accelerated Test at 40° C., Cold Test at 5° C., Ambient Test at 25° C.)","α-CD 1 w/w %, Compound E 0.2 w/w %",Stable
same,"Change Over 3 Months (Accelerated Test at 40° C., Cold Test at 5° C., Ambient Test at 25° C.)","α-CD 1 w/w %, Compound E 0.3 w/w %",Stable
same,"Change Over 3 Months (Accelerated Test at 40° C., Cold Test at 5° C., Ambient Test at 25° C.)","α-CD 1 w/w %, Compound E 0.4 w/w %",Stable
same,"Change Over 3 Months (Accelerated Test at 40° C., Cold Test at 5° C., Ambient Test at 25° C.)","α-CD 1 w/w %, Compound E 0.5 w/w %",Stable
same,"Change Over 3 Months (Accelerated Test at 40° C., Cold Test at 5° C., Ambient Test at 25° C.)","α-CD 1 w/w %, Compound E 0.6 w/w %",Stable
same,"Change Over 3 Months (Accelerated Test at 40° C., Cold Test at 5° C., Ambient Test at 25° C.)","α-CD 1 w/w %, Compound E 0.7 w/w %",Stable
